Data set [1] relates to mitochondrial MEF2D and ND6. In words: MPTP mouse model, western blotting of mitochondria purified from brain SNpc. The note with it: chronic intraperitoneal MPTP vs saline treated controls. It counts as in vivo.
Protocol: For each group, six eight-week-old mice received chronic intraperitoneal injections of MPTP-HCl in saline or saline alone were killed on 5 or 20 days after injection. Mitochondria purified from brain SNpc region were analyzed by western blotting. Experiments were repeated three times. […] For each group, three mice received stereotactical injection of control vector (GFP) or Mt2Ddn lentivirus in SN. Two weeks later, mice were exposed to MPTP. After treatment for seven days, the survival of lentivirus-transduced TH+ neurons in SN was determined by immunohistochemistry (left panel). Quantitative analysis of nine mice from three independent experiments was shown at the bottom panel (scale bar, 30 μm; **P<0.01). […] Mitochondria were purified from brain striata of postmortem PD patients and controls (normal). Equal amounts of mitochondrial proteins were subjected to western blotting (upper panel). Quantitative analysis of the bands was shown at the right panel (n=13 patients and 13 controls, *P<0.01). Experiments were repeated two times.
Mitochondria were purified from brain tissue using discontinuous sucrose gradient method. Briefly, brain homogenate was made in ice-cold homo-buffer (0.32 M sucrose, 20 mM Tris-HCl, pH 7.4) and spun at 900×g, 4° C. for 10 min. The supernatant was transferred to another clean tube and spun at 10,000×g, 4° C. for 10 min. […]
For data set [2], the system named is TH+ neurons in SNpc. In words: MPTP mouse model of PD, TH immunohistochemistry in SNpc. The conditions noted are these: mice, chronic MPTP exposure; SNpc and striatum.
Protocol: (B) Role of mitochondrial MEF2D-ND6 pathway in maintaining TH+ neurons in SNpc in a MPTP mouse model of PD. For each group, three mice received stereotactical injection of control vector (GFP) or Mt2Ddn lentivirus in SN. Two weeks later, mice were exposed to MPTP. After treatment for seven days, the survival of lentivirus-transduced TH+ neurons in SN was determined by immunohistochemistry (left panel). Quantitative analysis of nine mice from three independent experiments was shown at the bottom panel (scale bar, 30 μm; **P<0.01).
Data set [3] addresses MEF2D (1-91) (UniProt Q63943 Q63943:1-91). In words: EMSA; 10 ng protein, on ice 30 min. The conditions noted are these: tags: GST fusion (N-terminal GST); label: 32P. In general terms: A gel shift assay detects complexes by their altered migration in electrophoresis.

Sequence of MEF2D (1-91) (Q63943 1-91, one chain of several): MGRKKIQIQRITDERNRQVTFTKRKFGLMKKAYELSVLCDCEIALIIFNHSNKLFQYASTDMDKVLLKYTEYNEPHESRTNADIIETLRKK

Turning to `CN1CC=C(c2ccccc2)CC1` [MPTP, 1-methyl 4-phenyl 1,2,3,6-tetrahydropyridine], in data set [1], the “level of ND6 protein in mouse brain” value is recorded as “clear decline” and the “mitochondrial MEF2D in mouse brain” value was “significant reduction”. Besides, in data set [2], the “immunohistochemical signal for tyrosine hydroxylase (TH)” value is given as “loss”.

B1: ND6 MEF2 site probe WT (dsDNA)
DNA 1: CTAAACCCCCATAAATAGGAGAAGGCTT
DNA 2: AAGCCTTCTCCTATTTATGGGGGTTTAG
On to B1, for which the binding result in data set [3] is “binds”.

The record behind these values is patent US20120149645A1, “COMPOSITIONS AND MODULATION OF MYOCYTE ENHANCER FACTOR 2 (MEF2)” (EMORY UNIVERSITY, priority 2010, published 2012).
